Laboratory results taken from US10526327B2, “Histone demethylase inhibitors” (CELGENE QUANTICEL RESEARCH, INC., priority 2013, dated 2020).
pIC50: −log10 of the molar value.

Target: T1, Jarid1A (Homo sapiens, UniProt P29375)
T1 construct: purchased BPS Bioscience 50110
T1 sequence (P29375 1-1090): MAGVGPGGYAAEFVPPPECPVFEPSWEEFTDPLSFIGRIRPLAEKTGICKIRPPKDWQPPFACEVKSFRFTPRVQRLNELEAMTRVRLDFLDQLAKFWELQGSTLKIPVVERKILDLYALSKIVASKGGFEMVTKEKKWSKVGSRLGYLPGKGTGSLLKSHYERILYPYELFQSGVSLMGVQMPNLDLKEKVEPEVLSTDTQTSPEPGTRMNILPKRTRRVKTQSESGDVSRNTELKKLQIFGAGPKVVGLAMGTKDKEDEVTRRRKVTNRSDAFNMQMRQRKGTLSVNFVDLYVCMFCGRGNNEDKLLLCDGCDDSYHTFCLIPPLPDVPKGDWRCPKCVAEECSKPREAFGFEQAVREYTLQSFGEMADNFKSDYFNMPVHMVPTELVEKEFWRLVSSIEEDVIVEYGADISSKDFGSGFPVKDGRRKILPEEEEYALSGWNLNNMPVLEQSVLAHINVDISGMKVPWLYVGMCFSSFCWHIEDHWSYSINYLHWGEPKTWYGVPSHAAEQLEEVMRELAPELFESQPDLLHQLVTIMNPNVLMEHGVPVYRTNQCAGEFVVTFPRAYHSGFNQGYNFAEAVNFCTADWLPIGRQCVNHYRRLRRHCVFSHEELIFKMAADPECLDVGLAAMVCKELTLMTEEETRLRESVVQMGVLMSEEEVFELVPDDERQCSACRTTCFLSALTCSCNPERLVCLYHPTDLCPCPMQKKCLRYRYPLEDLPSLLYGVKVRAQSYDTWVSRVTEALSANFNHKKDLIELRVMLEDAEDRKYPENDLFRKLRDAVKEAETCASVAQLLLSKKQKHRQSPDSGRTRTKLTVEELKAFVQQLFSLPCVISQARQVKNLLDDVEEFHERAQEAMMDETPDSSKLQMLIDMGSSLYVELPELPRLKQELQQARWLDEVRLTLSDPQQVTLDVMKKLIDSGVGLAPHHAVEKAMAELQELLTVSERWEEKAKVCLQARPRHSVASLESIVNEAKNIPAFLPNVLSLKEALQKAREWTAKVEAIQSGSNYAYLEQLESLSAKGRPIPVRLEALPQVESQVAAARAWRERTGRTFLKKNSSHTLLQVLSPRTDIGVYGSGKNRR
Test: Jarid1A in vitro enzyme inhibition assay (TR-FRET)
Assay type: biochemical
Excerpt: This assay determines the ability of a test compound to inhibit Jarid1A, Jarid1B, and JMJD2C demethylase activity. Baculovirus expressed Jarid1A (GenBank Accession #NM_001042603, AA1-1090) was purchased from BPS Bioscience (Cat#50110). Baculovirus expressed Jarid1B (GenBank Accession #NM_006618, AA 2-751) was purchased from BPS Bioscience (Cat #50121) or custom made by MolecularThroughput. Baculovirus expressed JMJD2C (GenBank Accession #BC143571, AA 2-372) was purchased from BPS Bioscience (Cat#50105).
The enzymatic assay of Jarid1A activity is based upon Time Resolved-Fluorescence Resonance Energy Transfer (TR-FRET) detection. The ability of test compounds to inhibit the activity of Jarid1A was determined in 384-well plate format under the following reaction conditions: 1 nM Jarid1A, 300 nM H3K4me3-biotin labeled peptide (Anaspec cat #64357), 2 μM alpha-ketoglutaric acid in assay buffer of 50 mM HEPES, pH7.3, 0.005% Brij35, 0.5 mM TCEP, 0.2 mg/ml BSA, 50 μM sodium L-ascorbate, and 2 μM ammonium iron(II) sulfate. Reaction product was determined quantitatively by TR-FRET after the addition of detection reagent Phycolink Streptavidin-allophycocyanin (Prozyme) and Europium-anti-mono-or di-methylated histone H3 lysine 4 (H3K4me1-2) antibody (PerkinElmer) in the presence of 5 mM EDTA in LANCE detection buffer (PerkinElmer) at a final concentration of 25 nM and 1 nM, respectively.
The assay reaction was initiated by the following: 2 μl of the mixture of 900 nM H3K4me3-biotin labeled peptide and 6 μM alpha-ketoglutaric acid with 2 μl of 11-point serial diluted inhibitor in 3% DMSO was added to each well of plate, followed by the addition of 2 μl of 3 nM Jarid1A to initiate the reaction. The reaction mixture was incubated at room temperature for 30 minutes, and terminated by the addition of 6 μl of 5 mM EDTA in LANCE detection buffer containing 50 nM Phycolink Streptavidin-allophycocyanin and 2 nM Europium-anti-H3K4me1-2 antibody. Plates were read by EnVisionMultilabel Reader in TR-FRET mode (excitation at 320 nm, emission at 615 nm and 665 nm) after 1 hour incubation at room temperature. A ratio was calculated (665/615) for each well and fitted to determine inhibition constant (IC50).

Compound | pIC50
OCCOc1nc(O)c2ccncc2n1 [Example 3, 2-(2-hydroxyethoxy)pyrido[3,4-d]pyrimidin-4-ol] | ≥ 7.00
Oc1nc(OCc2ccccc2)nc2cnccc12 [Example 4, 2-phenylmethoxypyrido[3,4-d]pyrimidin-4-ol] | 6.00 to 7.00
Oc1nc(OCC2CC2)nc2cnccc12 [Example 5, 2-(cyclopropylmethoxy)-3H-pyrido[3,4-d]pyrimidin-4-one] | ≥ 7.00
Oc1nc(OC2CCCC2)nc2cnccc12 [Example 6, 2-cyclopentyloxy-3H-pyrido[3,4-d]pyrimidin-4-one] | 6.00 to 7.00
CCCOc1nc(O)c2ccncc2n1 [Example 7, 2-propoxy-3H-pyrido[3,4-d]pyrimidin-4-one] | ≥ 7.00
COc1nc(O)c2ccncc2n1 [Example 8, 2-methoxypyrido[3,4-d]pyrimidin-4-ol] | ≥ 7.00
CCC(C)Oc1nc(O)c2ccncc2n1 (stereo not shown) [Example 9, 2-butan-2-yloxy-3H-pyrido[3,4-d]pyrimidin-4-one] | 5.00 to 6.00
Oc1nc(OCCOc2ccccc2)nc2cnccc12 [Example 10, 2-(2-phenoxyethoxy)-3H-pyrido[3,4-d]pyrimidin-4-one] | ≥ 7.00
Oc1nc(OCC2CCC2)nc2cnccc12 [Example 11, 2-(cyclobutylmethoxy)-3H-pyrido[3,4-d]pyrimidin-4-one] | 6.00 to 7.00
Oc1nc(OCC(F)(F)F)nc2cnccc12 [Example 12, 2-(2,2,2-trifluoroethoxy)pyrido[3,4-d]pyrimidin-4-ol] | ≥ 7.00
CC(=O)Nc1ccc(Oc2nc(O)c3ccncc3n2)cc1 [Example 35, N-[4-(4-hydroxypyrido[3,4-d]pyrimidin-2-yl)oxyphenyl]acetamide] | ≥ 7.00
CC(C)(C)OC(=O)Nc1cccc(Oc2nc(O)c3ccncc3n2)c1 [Example 36, tert-butyl N-[3-(4-hydroxypyrido[3,4-d]pyrimidin-2-yl)oxyphenyl]carbamate] | ≥ 7.00
Oc1nc(Oc2ccc(F)c(F)c2)nc2cnccc12 [Example 37, 2-(3,4-difluorophenoxy)pyrido[3,4-d]pyrimidin-4-ol] | ≥ 7.00
COc1ccc(Oc2nc(O)c3ccncc3n2)cc1OC [Example 38, 2-(3,4-dimethoxyphenoxy)pyrido[3,4-d]pyrimidin-4-ol] | ≥ 7.00
CC(C)c1cccc(Oc2nc(O)c3ccncc3n2)c1 [Example 39, 2-(3-propan-2-ylphenoxy)pyrido[3,4-d]pyrimidin-4-ol] | ≥ 7.00
Oc1nc(Oc2cccc(F)c2)nc2cnccc12 [Example 40, 2-(3-fluorophenoxy)pyrido[3,4-d]pyrimidin-4-ol] | ≥ 7.00
Oc1nc(Oc2cccc(Cl)c2)nc2cnccc12 [Example 41, 2-(3-chlorophenoxy)pyrido[3,4-d]pyrimidin-4-ol] | ≥ 7.00
Oc1nc(Oc2cccc(F)c2F)nc2cnccc12 [Example 42, 2-(2,3-difluorophenoxy)pyrido[3,4-d]pyrimidin-4-ol] | ≥ 7.00
COc1c(F)cc(Oc2nc(O)c3ccncc3n2)cc1F [Example 43, 2-(3,5-difluoro-4-methoxyphenoxy)pyrido[3,4-d]pyrimidin-4-ol] | ≥ 7.00
COc1cccc(Oc2nc(O)c3ccncc3n2)c1 [Example 44, 2-(3-methoxyphenoxy)pyrido[3,4-d]pyrimidin-4-ol] | ≥ 7.00

Compound | pIC50
CCOc1c(F)cc(Oc2nc(O)c3ccncc3n2)cc1F [Example 45, 2-(4-ethoxy-3,5-difluorophenoxy)pyrido[3,4-d]pyrimidin-4-ol] | ≥ 7.00
Oc1nc(Oc2ccccc2F)nc2cnccc12 [Example 46, 2-(2-fluorophenoxy)pyrido[3,4-d]pyrimidin-4-ol] | ≥ 7.00
Oc1nc(Oc2ccc(F)cc2)nc2cnccc12 [Example 47, 2-(4-fluorophenoxy)pyrido[3,4-d]pyrimidin-4-ol] | ≥ 7.00
COc1ccc(Oc2nc(O)c3ccncc3n2)cc1 [Example 48, 2-(4-methoxyphenoxy)pyrido[3,4-d]pyrimidin-4-ol] | ≥ 7.00
Oc1nc(Oc2ccc(Cl)cc2)nc2cnccc12 [Example 49, 2-(4-chlorophenoxy)pyrido[3,4-d]pyrimidin-4-ol] | ≥ 7.00
CN(C)c1cccc(Oc2nc(O)c3ccncc3n2)c1 [Example 50, 2-[3-(dimethylamino)phenoxy]pyrido[3,4-d]pyrimidin-4-ol] | ≥ 7.00
Oc1nc(Oc2cccc(C(F)(F)F)c2)nc2cnccc12 [Example 52, 2-[3-(trifluoromethyl)phenoxy]pyrido[3,4-d]pyrimidin-4-ol] | ≥ 7.00
COc1ccc(Oc2nc(O)c3ccncc3n2)cc1F [Example 53, 2-(3-fluoro-4-methoxyphenoxy)pyrido[3,4-d]pyrimidin-4-ol] | ≥ 7.00
CCCn1cc(Oc2nc(O)c3ccncc3n2)cn1 [Example 54, 2-(1-propylpyrazol-4-yl)oxypyrido[3,4-d]pyrimidin-4-ol] | ≥ 7.00
CC(C)CCn1cc(Oc2nc(O)c3ccncc3n2)cn1 [Example 55, 2-{[1-(3-methylbutyl)pyrazol-4-yl]oxy}pyrido[3,4-d]pyrimidin-4-ol] | ≥ 7.00
Oc1nc(Oc2cnn(C3CCCC3)c2)nc2cnccc12 [Example 56, 2-[(1-cyclopentylpyrazol-4-yl)oxy]pyrido[3,4-d]pyrimidin-4-ol] | ≥ 7.00
CCc1cccc(Oc2nc(O)c3ccncc3n2)c1 [Example 57, 2-(3-ethylphenoxy)pyrido[3,4-d]pyrimidin-4-ol] | ≥ 7.00
CCCc1cccc(Oc2nc(O)c3ccncc3n2)c1 [Example 58, 2-(3-propylphenoxy)pyrido[3,4-d]pyrimidin-4-ol] | ≥ 7.00
CN(C)c1ccc(Oc2nc(O)c3ccncc3n2)cc1 [Example 59, 2-[4-(dimethylamino)phenoxy]pyrido[3,4-d]pyrimidin-4-ol] | ≥ 7.00
O=C(c1cc(F)cc(Oc2nc(O)c3ccncc3n2)c1)N1CCOCC1 [Example 60] | ≥ 7.00
COCCn1ncc2ccc(Oc3nc(O)c4ccncc4n3)cc21 [Example 61, 2-{[1-(2-methoxyethyl)-1H-indazol-6-yl]oxy}pyrido[3,4-d]pyrimidin-4-ol] | ≥ 7.00
CCn1cc(Oc2nc(O)c3ccncc3n2)cn1 [Example 62, 2-[(1-ethyl-1H-pyrazol-4-yl)oxy]pyrido[3,4-d]pyrimidin-4-ol] | ≥ 7.00
CC(C)n1cc(Oc2nc3cnccc3c(=O)[nH]2)cn1 [Example 63, 2-{[1-(propan-2-yl)-1H-pyrazol-4-yl]oxy}pyrido[3,4-d]pyrimidin-4-ol] | ≥ 7.00
COCCn1cc(Oc2nc(O)c3ccncc3n2)cn1 [Example 64, 2-{[1-(2-methoxyethyl)-1H-pyrazol-4-yl]oxy}pyrido[3,4-d]pyrimidin-4-ol] | ≥ 7.00
COCCCn1cc(Oc2nc(O)c3ccncc3n2)cn1 [Example 65, 2-{[1-(3-methoxypropyl)-1H-pyrazol-4-yl]oxy}pyrido[3,4-d]pyrimidin-4-ol] | ≥ 7.00
